pIC50: −log10 of the molar value.
Experiments:
[1] = target: human factor XIa (Homo sapiens, UniProt P03951); assay: Factor XIa Assay; format: biochemical; conditions: human factor XIa 0.04 nM, 30 min pre-incubation at 25° C., substrate GPR-AFC, pH 7.4, 60 min incubation; read-out: FXIa IC50
Method: (§1) The effectiveness of a compound of the present invention as an inhibitor of Coagulation factor XIa can be determined using a relevant purified serine protease, and an appropriate synthetic substrate. The rate of hydrolysis of the chromogenic or fluorogenic substrate by the relevant serine protease was measured both in the absence and presence of compounds of the present invention. Assays were conducted at rt or at 37° C. […] A decrease in the rate of fluorescence change in the presence of inhibitor is indicative of enzyme inhibition. Such methods are known to one skilled in the art. The results of this assay are expressed as the half-maximal inhibitory concentrations (IC50), or the inhibitory constant, Ki.
Compounds were pre-incubated for 30 min at 25° C. with human (0.04 nM) factor XIa in 50 mM HEPES buffer with 150 mM sodium chloride, 5 mM calcium chloride, 0.1% PEG 8000, pH 7.4. factor XIa enzymatic activity was determined by addition of the substrate glycine-proline-arginine-7-amido-4-trifluoromethylcoumarin (GPR-AFC) and measurement of the fluorescence at 400/505 nm after a 60 min incubation at 25° C. The % inhibition for each data point was calculated from the data and analyzed using the log (inhibitor) vs. response four parameters equation to determine the half-maximal inhibitory concentrations (IC50). The IC50 were converted to equilibrium inhibitory constants (Ki) using the Cheng-Prusoff equation.

[2] = target: T1, Human plasma kallikrein (Homo sapiens, UniProt P03952); assay: Plasma Kallikrein Assay; format: biochemical; conditions: purified Human plasma kallikrein 0.5 nM, substrate Acetyl-K-P-R-AFC, HEPES pH 7.4, fluorescence 405 Ex/510 Em; read-out: PKal IC50
T1 construct: yields a heavy chain (371 amino acids) and a light chain (248 amino acids); purchased Enzyme Research Laboratories
Method: as §1, with “plasma kallikrein” for “Coagulation factor XIa”
Plasma kallikrein determinations were made in 50 mM HEPES buffer at pH 7.4 containing 150 mM NaCl, 5 mM CaCl2), and 0.1% PEG 8000 (polyethylene glycol: Fisher Scientific). Determinations were made using purified Human plasma kallikrein at a final concentration of 0.5 nM (Enzyme Research Laboratories) and the synthetic substrate, Acetyl-K-P-R-AFC (Sigma #C6608) at a concentration of […].
Activity assays were performed by diluting a stock solution of substrate at least tenfold to a final concentration ≤0.2 Km into a solution containing enzyme or enzyme equilibrated with inhibitor. Times required to achieve equilibration between enzyme and inhibitor were determined in control experiments. The reactions were performed under linear progress curve conditions and fluorescence increase measured at 405 Ex/510 Em nm. Values were converted to percent inhibition of the control reaction (after subtracting 100% Inhibition value). IC50 was determined by inflection point from a four parameter logistic curve fit. Ki was calculated using the Cheng Prusoff equation, Ki=IC50/(1+([S]/Km)).

T1 sequence (P03952 391-638 limits assumed): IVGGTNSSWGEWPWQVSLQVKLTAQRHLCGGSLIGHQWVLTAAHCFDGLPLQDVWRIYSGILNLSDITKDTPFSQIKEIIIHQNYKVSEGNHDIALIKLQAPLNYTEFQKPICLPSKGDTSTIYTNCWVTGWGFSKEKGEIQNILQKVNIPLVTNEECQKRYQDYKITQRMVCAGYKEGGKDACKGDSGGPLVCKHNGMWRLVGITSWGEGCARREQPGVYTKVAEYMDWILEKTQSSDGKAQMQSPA
T1 sequence (P03952 20-390 partner limits assumed): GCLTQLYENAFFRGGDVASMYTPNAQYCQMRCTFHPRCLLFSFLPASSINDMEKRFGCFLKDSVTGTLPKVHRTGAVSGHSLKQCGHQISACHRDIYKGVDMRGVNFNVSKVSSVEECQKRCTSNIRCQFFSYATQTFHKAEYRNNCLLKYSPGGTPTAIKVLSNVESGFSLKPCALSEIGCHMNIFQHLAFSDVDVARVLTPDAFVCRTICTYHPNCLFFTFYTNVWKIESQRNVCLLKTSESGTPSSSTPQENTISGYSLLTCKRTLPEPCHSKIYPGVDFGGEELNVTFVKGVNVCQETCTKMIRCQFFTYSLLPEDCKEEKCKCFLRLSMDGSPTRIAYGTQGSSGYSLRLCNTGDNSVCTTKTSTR
Sequence of human factor XIa (P03951 388-625 limits assumed): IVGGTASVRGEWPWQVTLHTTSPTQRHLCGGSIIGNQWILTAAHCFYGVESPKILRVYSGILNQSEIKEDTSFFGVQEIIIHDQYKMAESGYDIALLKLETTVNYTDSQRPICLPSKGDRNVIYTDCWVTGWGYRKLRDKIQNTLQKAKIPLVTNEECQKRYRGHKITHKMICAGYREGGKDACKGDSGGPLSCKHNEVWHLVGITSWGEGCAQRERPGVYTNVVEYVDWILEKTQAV
Sequence of human factor XIa (P03951 19-387 partner limits assumed): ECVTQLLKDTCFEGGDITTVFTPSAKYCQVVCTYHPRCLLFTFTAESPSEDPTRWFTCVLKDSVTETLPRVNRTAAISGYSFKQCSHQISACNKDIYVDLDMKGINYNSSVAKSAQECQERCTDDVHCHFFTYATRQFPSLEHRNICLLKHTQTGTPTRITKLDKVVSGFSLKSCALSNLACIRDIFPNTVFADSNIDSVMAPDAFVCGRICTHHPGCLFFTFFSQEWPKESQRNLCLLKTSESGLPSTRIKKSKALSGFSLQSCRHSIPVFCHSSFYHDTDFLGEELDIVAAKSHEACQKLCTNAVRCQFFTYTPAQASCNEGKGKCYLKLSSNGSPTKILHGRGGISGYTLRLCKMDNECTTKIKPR

Row | Compound | pIC50 [1] | pIC50 [2]
1 | Nc1c(Cl)c(-c2ncc(F)cc2F)nn1CC(=O)N1CCC[C@@]2(C1)OC(=O)Nc1ccc(Cl)c(F)c12 [Example 33, (R)-1′-(2-(5-Amino-4-chloro-3-(3,5-difluoropyridin-2-y1)-1H-pyrazol-1-yl)acetyl)-6-chloro-5-fluorospiro[benzo[d][1,3]oxazine-4,3′-piperidin]-2(1H)-one] | 6.73 | 8.11
2 | Cc1cc(-c2cc(N)n(CC(=O)N3CC[C@@]4(C3)OC(=O)Nc3ccc(Cl)c(F)c34)n2)no1 [Example 60, (R)-1′-(2-(5-Amino-3-(5-methylisoxazol-3-y1)-1H-pyrazol-1-yl)acetyl)-6-chloro-5-fluorospiro[benzo[d][1,3]oxazine-4,3′-pyrrolidin]-2(1H)-one] | 6.06 | 7.61
3 | Nc1c(Cl)c(-c2ccccc2)nn1CC(=O)N1CCC[C@@]2(C1)OC(=O)Nc1ccc(Cl)c(F)c12 [Example 22, (R)-1′-(2-(5-Amino-4-chloro-3-phenyl-1H-pyrazol-1-yl)acetyl)-6-chloro-5-fluorospiro[benzo[d][1,3]oxazine-4,3′-piperidin]-2(1H)-one] | 6.29 | 7.58
4 | Nc1cc(-c2ccccc2C(F)(F)F)nn1CC(=O)N1CC[C@@]2(C1)OC(=O)Nc1ccc(Cl)c(F)c12 [Example 50, (R)-1′-(2-(5-Amino-3-(2-(trifluoromethyl)phenyl)-1H-pyrazol-1-yl)acetyl)-6-chloro-5-fluorospiro[benzo[d][1,3]oxazine-4,3′-pyrrolidin]-2(1H)-one] | 6.37 | 8.27
5 | Nc1cc(C2CCOCC2)nn1CC(=O)N1CC[C@@]2(C1)OC(=O)Nc1ccc(Cl)c(F)c12 [Example 5, (R)-1′-(2-(5-Amino-3-(tetrahydro-2H-pyran-4-y1)-1H-pyrazol-1-yl)acetyl)-6-chloro-5-fluorospiro[benzo[d][1,3]oxazine-4,3′-pyrrolidin]-2(1H)-one] | 6.16 | 7.51
6 | COc1cccc(OC)c1-c1cc(N)n(CC(=O)N2CC[C@@]3(C2)OC(=O)Nc2ccc(Cl)c(F)c23)n1 [Example 51, (R)-1′-(2-(5-Amino-3-(2,6-dimethoxyphenyl)-1H-pyrazol-1-yl)acetyl)-6-chloro-5-fluorospiro[benzo[d][1,3]oxazine-4,3′-pyrrolidin]-2(1H)-one] | 5.75 | 7.63
7 | Nc1c(Cl)c(-c2ccccc2)nn1CC(=O)N1CC[C@@]2(C1)OC(=O)Nc1ccc(Cl)c(F)c12 [Example 20, (R)-1′-(2-(5-Amino-4-chloro-3-phenyl-1H-pyrazol-1-yl)acetyl)-6-chloro-5-fluorospiro[benzo[d][1,3]oxazine-4,3′-pyrrolidin]-2(1H)-one] | 6.67 | 7.37
8 | CC1(C)C(c2cc(N)n(CC(=O)N3CC[C@@]4(C3)OC(=O)Nc3ccc(Cl)c(F)c34)n2)C1(C)C [Example 53, (R)-1′-(2-(5-Amino-3-(2,2,3,3-tetramethylcyclopropyl)-1H-pyrazol-1-yl)acetyl)-6-chloro-5-fluorospiro[benzo[d][1,3]oxazine-4,3′-pyrrolidin]-2(1H)-one] | 6.49 | 7.94
9 | Nc1cc(-c2c(F)cc(F)cc2F)nn1CC(=O)N1CC[C@@]2(C1)OC(=O)Nc1ccc(Cl)c(F)c12 [Example 59, (R)-1′-(2-(5-Amino-3-(2,4,6-trifluorophenyl)-1H-pyrazol-1-yl)acetyl)-6-chloro-5-fluorospiro[benzo[d][1,3]oxazine-4,3′-pyrrolidin]-2(1H)-one] | 6.71 | 8.43
10 | Nc1cc(-c2ccc(OC(F)(F)F)cc2)nn1CC(=O)N1CC[C@@]2(C1)OC(=O)Nc1ccc(Cl)c(F)c12 [Example 7, (R)-1′-(2-(5-Amino-3-(4-(trifluoromethoxy)phenyl)-1H-pyrazol-1-yl)acetyl)-6-chloro-5-fluorospiro[benzo[d][1,3]oxazine-4,3′-pyrrolidin]-2(1H)-one] | 5.38 | 7.31
11 | Nc1c(Cl)c(C2CC2)nn1CC(=O)N1CCC[C@@]2(C1)OC(=O)Nc1ccc(Cl)c(F)c12 [Example 29, (R)-1′-(2-(5-Amino-4-chloro-3-cyclopropyl-1H-pyrazol-1-yl)acetyl)-6-chloro-5-fluorospiro[benzo[d][1,3]oxazine-4,3'-piperidin]-2(1H)-one] | 5.90 | 7.49
12 | Nc1c2c(nn1CC(=O)N1CCC[C@@]3(C1)OC(=O)Nc1ccc(Cl)c(F)c13)CCCC2 [Example 26, (R)-1′-(2-(3-Amino-4,5,6,7-tetrahydro-2H-indazol-2-yl)acetyl)-6-chloro-5-fluorospiro[benzo[d][1,3]oxazine-4,3′-piperidin]-2(1H)-one] | 6.32 | 7.65
13 | Nc1cc(-c2cccc(C(F)(F)F)c2)nn1CC(=O)N1CC[C@@]2(C1)OC(=O)Nc1ccc(Cl)c(F)c12 [Example 12, (R)-1′-(2-(5-Amino-3-(3-(trifluoromethyl)phenyl)-1H-pyrazol-1-yl)acetyl)-6-chloro-5-fluorospiro[benzo[d][1,3]oxazine-4,3′-pyrrolidin]-2(1H)-one] | 5.57 | 7.43

More lines, in order of rising pIC50 [1], values ahead:

Row | pIC50 [1] | pIC50 [2] | Compound
14 | 6.04 | 8.00 | COc1ccc(-c2cc(N)n(CC(=O)N3CC[C@@]4(C3)OC(=O)Nc3ccc(Cl)c(F)c34)n2)cc1 [Example 6, (R)-1′-(2-(5-Amino-3-(4-methoxyphenyl)-1H-pyrazol-1-yl)acetyl)-6-chloro-5-fluorospiro[benzo[d][1,3]oxazine-4,3′-pyrrolidin]-2(1H)-one]
15 | 6.18 | 7.55 | Nc1cc(-c2ccccn2)nn1CC(=O)N1CC[C@@]2(C1)OC(=O)Nc1ccc(Cl)c(F)c12 [Example 38, (R)-1′-(2-(5-Amino-3-(pyridin-2-y1)-1H-pyrazol-1-yl)acetyl)-6-chloro-5-fluorospiro[benzo[d][1,3]oxazine-4,3′-pyrrolidin]-2(1H)-one]
16 | 6.41 | 7.95 | Nc1cc(-c2cncc(Br)c2)nn1CC(=O)N1CC[C@@]2(C1)OC(=O)Nc1ccc(Cl)c(F)c12 [Example 44, (R)-1′-(2-(5-Amino-3-(5-bromopyridin-3-y1)-1H-pyrazol-1-yl)acetyl)-6-chloro-5-fluorospiro[benzo[d][1,3]oxazine-4,3'-pyrrolidin]-2(1H)-one]
17 | 6.49 | 7.72 | Nc1c(Cl)c(-c2ccc(F)cc2F)nn1CC(=O)N1CCC[C@@]2(C1)OC(=O)Nc1ccc(Cl)c(F)c12 [Example 21, (R)-1′-(2-(5-Amino-4-chloro-3-(2,4-difluorophenyl)-1H-pyrazol-1-yl)acetyl)-6-chloro-5-fluorospiro[benzo[d][1,3]oxazine-4,3′-piperidin]-2(1H)-one]
18 | 6.74 | 8.85 | Cn1ncc(-c2cc(N)n(CC(=O)N3CC[C@@]4(C3)OC(=O)Nc3ccc(Cl)c(F)c34)n2)c1C(F)(F)F [Example 49, (R)-1′-(2-(5-Amino-1′-methyl-5′-(trifluoromethyl)-1H,1′H-[3,4′-bipyrazol]-1-yl)acetyl)-6-chloro-5-fluorospiro[benzo[d][1,3]oxazine-4,3′-pyrrolidin]-2(1H)-one]
19 | 6.79 | 7.43 | Nc1c(F)c(-c2ccc(F)cc2F)nn1CC(=O)N1CCC[C@@]2(C1)OC(=O)Nc1ccc(Cl)c(F)c12 [Example 30, (R)-1′-(2-(5-Amino-3-(2,4-difluorophenyl)-4-fluoro-1H-pyrazol-1-yl)acetyl)-6-chloro-5-fluorospiro[benzo[d][1,3]oxazine-4,3'-piperidin]-2(1H)-one]
